Series [1] can be described thus: Induction of singlet oxygen generation assessed as singlet oxygen quantum yield using liposome formulated compound. Format: functional.
Series [2] can be described thus: Aggregation property of the compound in toluene at 130 degreeC under inert atmosphere. Format: physicochemical.
Series [3] is described as follows: Toxicity in New Zealand rabbit assessed as retinal damage in left eye pretreated with compound at 6 mg/m2, iv followed by diode laser irradiation at 650 nm measured after 24 hrs by fluorescein angiogram. As to conditions: in vivo, 0.65 µM, dose 6 mg/m2, time 24 hrs. The series is classed as organism-based, Oryctolagus cuniculus.
In series [4] the test system is Oryctolagus cuniculus. The experiment in a line: Photodynamic activity in New Zealand rabbit assessed as appearance of pallor area of one qaurter-diameter disc shaped in left eye pretreated with compound at 6 mg/m2, iv followed by diode laser irradiation at 650 nm measured after 24 hrs by retinography. Format: functional, organism-based. As to conditions: dose 6.0 mg/m2, time 24.0 hrs.

A short description of series [5]: Toxicity in New Zealand rabbit assessed as effect on hepatic profile pretreated with compound at 6 mg/m2, iv followed by diode laser irradiation at 650 nm measured after 24 hrs by fluorescein angiogram. Format: organism-based, Oryctolagus cuniculus. As to conditions: in vivo, 0.65 µM, dose 6 mg/m2, time 24 hrs.
Series [6] concerns Oryctolagus cuniculus. The experiment in a line: Photodynamic activity in New Zealand rabbit assessed as blood flow obstruction causing hypo-fluorescent lesion in left eye pretreated with compound at 6 mg/m2, iv followed by diode laser irradiation at 650 nm measured after 24 hrs by fluorescein angiogram. Format: functional, organism-based. Conditions: dose 6.0 mg/m2, time 24.0 hrs.

Series [7] is described as follows: Toxicity in New Zealand rabbit assessed as effect on renal profile pretreated with compound at 6 mg/m2, iv followed by diode laser irradiation at 650 nm measured after 24 hrs by fluorescein angiogram. The series is classed as organism-based, Oryctolagus cuniculus. Conditions: in vivo, 0.65 µM, dose 6 mg/m2, time 24 hrs.
For series [8], the system named is Oryctolagus cuniculus. The experiment in a line: Photodynamic activity in New Zealand rabbit assessed as vascular occlusion causing hypo-fluorescent lesion in left eye pretreated with compound at 6 mg/m2, iv followed by diode laser irradiation at 650 nm measured after 24 hrs by fluorescein angiogram. The series is classed as functional, organism-based. Conditions: dose 6.0 mg/m2, time 24.0 hrs.

Series [9] is described as follows: Photoactivity of the compound.
In series [10] the test system is Oryctolagus cuniculus. The experiment in a line: Photodynamic activity in New Zealand rabbit assessed as outer blood-retinal barrier breakdown causing hyper-fluorescence in left eye pretreated with compound at 6 mg/m2, iv followed by diode laser irradiation at 650 nm measured after 24 hrs by fluorescein angiogram. The series is classed as functional, organism-based. As to conditions: dose 6.0 mg/m2, time 24.0 hrs.

The nature of series [11]: Induction of singlet oxygen generation in 9:1 acetonitrile/water mixture assessed as singlet oxygen quantum yield irradiated with 532 nanometer laser light. The series is classed as functional.
Series [12] deals with Oryctolagus cuniculus. The experiment in a line: Photodynamic activity in New Zealand rabbit assessed as induction of choriocapillaris occlusion in left eye pretreated with compound at 6 mg/m2, iv followed by diode laser irradiation at 650 nm by indirect ophthalmoscopy. The series is classed as functional, organism-based.

Calls of active or inactive are those of the source. The calls are words filed in the database; no cut-off is given here.

Regarding `C=CC1=C(C)c2cc3[nH]c(cc4nc(cc5[nH]c(cc1n2)c(C)c5CCC(=O)OC)C(CCC(=O)OC)=C4C)[C@@]1(C)C3=CCC2C(=O)N(c3ccc([N+](=O)[O-])cc3)C(=O)C21` (some centres undefined), the Activity in series [1] was 0.5; in series [2], “Not Active”; in [3] it was “Non-Toxic”; in series [5], “Non-Toxic”; in series [7], “Non-Toxic”; in series [11], 0.6. For the same molecule, the outcome in series [4], in series [6], in [8], in series [9], in series [10] and in series [12] was Active.
For `C=Cc1c(C)c2cc3nc(cc4[nH]c(cc5nc(cc1[nH]2)[C@@]1(C)C5=CC[C@H]2C(=O)N(c5ccc([N+](=O)[O-])cc5)C(=O)[C@H]21)c(C)c4CCC(=O)OC)C(CCC(=O)OC)=C3C`, the Activity in series [1] is 0.5; in [2], “Not Active”; in series [3], “Non-Toxic”; in series [5], “Non-Toxic”; in series [7], “Non-Toxic”; in series [11] it was 0.6. Further, the outcome in [4], in series [6], in series [8], in series [9], in series [10] and in series [12] was Active.
